Laboratory results reported in ChEMBL document CHEMBL1221170, “Sensing with TRP channels” (Nat Chem Biol, 2005).

The compounds below were run against Transient receptor potential cation channel subfamily V member 4 (Homo sapiens) (UniProt Q9HBA0) (assay: Agonist activity at TRPV4).
Assay type: functional

Transient receptor potential cation channel subfamily V member 4 (Homo sapiens), sequence (Q9HBA0 whole entry): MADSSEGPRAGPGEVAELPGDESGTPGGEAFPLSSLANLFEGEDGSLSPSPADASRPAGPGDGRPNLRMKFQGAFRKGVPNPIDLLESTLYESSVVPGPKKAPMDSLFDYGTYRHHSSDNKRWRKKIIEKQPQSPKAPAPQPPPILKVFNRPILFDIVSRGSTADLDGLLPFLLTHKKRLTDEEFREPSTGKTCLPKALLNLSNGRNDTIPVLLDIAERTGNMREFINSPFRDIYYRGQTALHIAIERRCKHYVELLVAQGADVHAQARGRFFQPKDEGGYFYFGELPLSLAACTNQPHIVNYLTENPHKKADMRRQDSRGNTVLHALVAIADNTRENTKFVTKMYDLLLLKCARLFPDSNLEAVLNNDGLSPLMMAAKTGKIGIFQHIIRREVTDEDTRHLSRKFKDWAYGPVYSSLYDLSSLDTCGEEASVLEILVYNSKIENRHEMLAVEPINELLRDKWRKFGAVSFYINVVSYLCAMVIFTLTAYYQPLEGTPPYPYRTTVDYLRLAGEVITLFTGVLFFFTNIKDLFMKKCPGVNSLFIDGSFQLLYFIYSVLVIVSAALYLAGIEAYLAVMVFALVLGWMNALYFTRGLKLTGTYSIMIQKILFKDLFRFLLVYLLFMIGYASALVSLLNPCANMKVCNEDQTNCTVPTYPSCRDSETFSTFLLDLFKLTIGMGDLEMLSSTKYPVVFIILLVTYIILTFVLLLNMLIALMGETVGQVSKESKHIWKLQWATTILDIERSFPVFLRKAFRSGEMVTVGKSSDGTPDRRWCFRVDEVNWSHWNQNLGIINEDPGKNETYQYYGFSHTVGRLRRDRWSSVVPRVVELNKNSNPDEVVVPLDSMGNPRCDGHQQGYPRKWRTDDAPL

SMILES	Activity
CCCCCCCCCC(=O)O[C@H]1[C@H](C)[C@]2(O)[C@H](C=C(CO)C[C@@]3(O)C(=O)C(C)=C[C@H]23)[C@H]2C(C)(C)[C@@]12OC(=O)CCCCCCCCC	0.099 µM
CCCCC/C=C/C/C=C/C/C=C/CC1OC1CCCC(=O)O (centres undefined)	0.01 µM

What follows are compounds tested against Transient receptor potential cation channel subfamily M member 8 (Homo sapiens) (UniProt Q7Z2W7) (assay: Agonist activity at TRPM8).
Assay type: functional

Transient receptor potential cation channel subfamily M member 8 (Homo sapiens), sequence (Q7Z2W7 whole entry, looked up): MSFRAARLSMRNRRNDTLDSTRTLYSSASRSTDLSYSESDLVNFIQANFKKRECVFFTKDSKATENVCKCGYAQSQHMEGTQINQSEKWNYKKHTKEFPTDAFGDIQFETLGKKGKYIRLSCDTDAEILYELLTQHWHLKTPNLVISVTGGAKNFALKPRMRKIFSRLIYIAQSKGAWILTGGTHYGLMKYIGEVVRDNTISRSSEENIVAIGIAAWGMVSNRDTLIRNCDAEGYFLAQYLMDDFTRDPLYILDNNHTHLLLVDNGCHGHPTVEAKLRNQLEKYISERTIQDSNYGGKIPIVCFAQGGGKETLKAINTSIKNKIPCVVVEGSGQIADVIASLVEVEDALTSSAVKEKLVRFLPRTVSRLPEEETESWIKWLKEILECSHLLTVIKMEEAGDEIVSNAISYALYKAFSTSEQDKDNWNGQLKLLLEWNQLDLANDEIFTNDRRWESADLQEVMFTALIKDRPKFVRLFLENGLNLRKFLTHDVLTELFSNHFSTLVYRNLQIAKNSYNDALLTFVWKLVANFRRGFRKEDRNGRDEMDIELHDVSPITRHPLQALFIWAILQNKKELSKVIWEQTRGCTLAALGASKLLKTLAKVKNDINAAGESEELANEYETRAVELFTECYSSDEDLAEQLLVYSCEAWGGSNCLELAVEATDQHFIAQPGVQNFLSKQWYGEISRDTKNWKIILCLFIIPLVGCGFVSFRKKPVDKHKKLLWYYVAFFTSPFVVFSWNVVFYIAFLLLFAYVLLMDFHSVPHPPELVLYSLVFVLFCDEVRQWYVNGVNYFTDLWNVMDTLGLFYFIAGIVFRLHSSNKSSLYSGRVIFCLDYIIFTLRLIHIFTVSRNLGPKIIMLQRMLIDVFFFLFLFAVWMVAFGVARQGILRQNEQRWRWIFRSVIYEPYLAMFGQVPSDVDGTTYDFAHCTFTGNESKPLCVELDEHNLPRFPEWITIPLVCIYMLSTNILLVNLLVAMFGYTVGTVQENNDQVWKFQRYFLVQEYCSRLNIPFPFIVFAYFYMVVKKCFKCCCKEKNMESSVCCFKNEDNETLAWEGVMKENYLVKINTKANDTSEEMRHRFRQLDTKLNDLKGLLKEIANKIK

SMILES	Activity
CC1CCC(C(C)C)C(O)C1 (centres undefined)	10 µM
CC12CCC(CC1)C(C)(C)O2	100 µM
O=C1NC(c2cccc([N+](=O)[O-])c2)=CCN1c1ccccc1O	0.099 µM

What follows are compounds tested against Transient receptor potential cation channel subfamily A member 1 (Homo sapiens) (UniProt O75762) (assay: Agonist activity at TRPA1).
Assay type: functional

Transient receptor potential cation channel subfamily A member 1 (Homo sapiens), sequence (O75762 whole entry): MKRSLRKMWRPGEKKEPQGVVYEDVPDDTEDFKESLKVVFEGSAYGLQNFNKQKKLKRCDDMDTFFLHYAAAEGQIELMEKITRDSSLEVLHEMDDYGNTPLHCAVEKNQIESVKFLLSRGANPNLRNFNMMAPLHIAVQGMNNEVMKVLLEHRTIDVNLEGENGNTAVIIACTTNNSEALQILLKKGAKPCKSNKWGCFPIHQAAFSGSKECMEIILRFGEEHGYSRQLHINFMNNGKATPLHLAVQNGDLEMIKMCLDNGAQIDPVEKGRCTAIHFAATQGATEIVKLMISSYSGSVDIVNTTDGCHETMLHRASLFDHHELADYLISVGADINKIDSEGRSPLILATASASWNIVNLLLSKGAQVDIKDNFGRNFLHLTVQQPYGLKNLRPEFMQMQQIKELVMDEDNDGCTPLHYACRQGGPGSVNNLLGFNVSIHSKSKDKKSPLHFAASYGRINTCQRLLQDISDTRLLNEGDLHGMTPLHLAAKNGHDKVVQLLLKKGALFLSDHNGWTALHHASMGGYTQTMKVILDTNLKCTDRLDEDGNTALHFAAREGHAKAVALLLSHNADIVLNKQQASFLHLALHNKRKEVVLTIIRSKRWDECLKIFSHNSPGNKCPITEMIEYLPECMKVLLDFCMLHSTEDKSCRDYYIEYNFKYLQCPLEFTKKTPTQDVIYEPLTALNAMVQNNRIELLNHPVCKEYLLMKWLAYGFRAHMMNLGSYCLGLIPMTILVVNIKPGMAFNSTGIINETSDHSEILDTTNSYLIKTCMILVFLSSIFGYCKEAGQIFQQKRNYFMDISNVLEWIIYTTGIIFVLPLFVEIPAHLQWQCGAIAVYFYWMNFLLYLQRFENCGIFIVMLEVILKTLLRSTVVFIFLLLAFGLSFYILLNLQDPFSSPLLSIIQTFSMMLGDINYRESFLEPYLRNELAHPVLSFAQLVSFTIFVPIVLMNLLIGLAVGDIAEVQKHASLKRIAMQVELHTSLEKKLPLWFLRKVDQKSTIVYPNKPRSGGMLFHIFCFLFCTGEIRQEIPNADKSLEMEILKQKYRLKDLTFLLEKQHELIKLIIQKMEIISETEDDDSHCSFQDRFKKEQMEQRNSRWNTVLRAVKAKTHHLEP

SMILES	Activity
C=CCS[S+]([O-])CC=C (centres undefined)	10 µM
O=C/C=C/c1ccccc1	10 µM
O=C1NC(c2cccc([N+](=O)[O-])c2)=CCN1c1ccccc1O	0.099 µM
CCCCCc1cc(O)c2c(c1)OC(C)(C)[C@@H]1CCC(C)=C[C@@H]21	10 µM
